The text below walks through data of publication PMC7187165, “Structure‐Based Design, Synthesis, and Biological Evaluation of Triazole‐Based smHDAC8 Inhibitors” (Chemmedchem, 2020).

Like-named read-outs stand apart in the source and are kept apart here.

The target of one data set is T1, smHDAC8 (Schistosoma mansoni, UniProt A5H660).
T1 construct: made in house; host or cells: E. coli
T1 sequence (A5H660 1-440): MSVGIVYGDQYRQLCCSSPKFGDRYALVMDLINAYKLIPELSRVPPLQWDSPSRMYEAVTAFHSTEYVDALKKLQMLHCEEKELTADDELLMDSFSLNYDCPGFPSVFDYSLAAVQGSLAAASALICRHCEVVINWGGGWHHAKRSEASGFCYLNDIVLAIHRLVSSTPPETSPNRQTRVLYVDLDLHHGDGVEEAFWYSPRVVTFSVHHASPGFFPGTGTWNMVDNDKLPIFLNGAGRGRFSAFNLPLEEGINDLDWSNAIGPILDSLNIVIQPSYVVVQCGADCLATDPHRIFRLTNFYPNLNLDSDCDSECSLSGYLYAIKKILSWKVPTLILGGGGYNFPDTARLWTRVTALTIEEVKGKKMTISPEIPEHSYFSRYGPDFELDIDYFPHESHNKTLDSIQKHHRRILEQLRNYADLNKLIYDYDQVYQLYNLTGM
The data set is described as follows: biochemical. The class given is biochemical. The settings on record: for inhibition at 10 µM: pretest n=1, read-out: smHDAC8 (% inhibition, Fluor de Lys).

The target of data set [1] is T2, hsHDAC8 (Homo sapiens, UniProt Q9BY41).
T2 construct: made in house
T2 sequence (Q9BY41 1-377): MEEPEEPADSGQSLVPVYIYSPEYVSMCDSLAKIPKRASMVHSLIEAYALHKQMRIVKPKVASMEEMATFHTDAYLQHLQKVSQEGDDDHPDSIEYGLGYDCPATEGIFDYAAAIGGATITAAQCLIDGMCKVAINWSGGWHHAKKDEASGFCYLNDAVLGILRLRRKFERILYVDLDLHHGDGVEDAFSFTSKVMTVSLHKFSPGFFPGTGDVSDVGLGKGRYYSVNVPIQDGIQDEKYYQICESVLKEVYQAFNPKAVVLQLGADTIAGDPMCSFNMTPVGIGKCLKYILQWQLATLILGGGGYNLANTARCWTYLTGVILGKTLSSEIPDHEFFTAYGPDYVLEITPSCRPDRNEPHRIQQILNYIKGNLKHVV
The experiment in a line: In vitro hsHDAC8 inhibition, homogeneous fluorescence assay (Fluor de Lys substrate). In kind it is biochemical. The note with it: n=2; mean ± S.E.M.

The target of a further data set is T3, hsHDAC6 (Homo sapiens, UniProt Q9UBN7).
T3 sequence (Q9UBN7 1-1215): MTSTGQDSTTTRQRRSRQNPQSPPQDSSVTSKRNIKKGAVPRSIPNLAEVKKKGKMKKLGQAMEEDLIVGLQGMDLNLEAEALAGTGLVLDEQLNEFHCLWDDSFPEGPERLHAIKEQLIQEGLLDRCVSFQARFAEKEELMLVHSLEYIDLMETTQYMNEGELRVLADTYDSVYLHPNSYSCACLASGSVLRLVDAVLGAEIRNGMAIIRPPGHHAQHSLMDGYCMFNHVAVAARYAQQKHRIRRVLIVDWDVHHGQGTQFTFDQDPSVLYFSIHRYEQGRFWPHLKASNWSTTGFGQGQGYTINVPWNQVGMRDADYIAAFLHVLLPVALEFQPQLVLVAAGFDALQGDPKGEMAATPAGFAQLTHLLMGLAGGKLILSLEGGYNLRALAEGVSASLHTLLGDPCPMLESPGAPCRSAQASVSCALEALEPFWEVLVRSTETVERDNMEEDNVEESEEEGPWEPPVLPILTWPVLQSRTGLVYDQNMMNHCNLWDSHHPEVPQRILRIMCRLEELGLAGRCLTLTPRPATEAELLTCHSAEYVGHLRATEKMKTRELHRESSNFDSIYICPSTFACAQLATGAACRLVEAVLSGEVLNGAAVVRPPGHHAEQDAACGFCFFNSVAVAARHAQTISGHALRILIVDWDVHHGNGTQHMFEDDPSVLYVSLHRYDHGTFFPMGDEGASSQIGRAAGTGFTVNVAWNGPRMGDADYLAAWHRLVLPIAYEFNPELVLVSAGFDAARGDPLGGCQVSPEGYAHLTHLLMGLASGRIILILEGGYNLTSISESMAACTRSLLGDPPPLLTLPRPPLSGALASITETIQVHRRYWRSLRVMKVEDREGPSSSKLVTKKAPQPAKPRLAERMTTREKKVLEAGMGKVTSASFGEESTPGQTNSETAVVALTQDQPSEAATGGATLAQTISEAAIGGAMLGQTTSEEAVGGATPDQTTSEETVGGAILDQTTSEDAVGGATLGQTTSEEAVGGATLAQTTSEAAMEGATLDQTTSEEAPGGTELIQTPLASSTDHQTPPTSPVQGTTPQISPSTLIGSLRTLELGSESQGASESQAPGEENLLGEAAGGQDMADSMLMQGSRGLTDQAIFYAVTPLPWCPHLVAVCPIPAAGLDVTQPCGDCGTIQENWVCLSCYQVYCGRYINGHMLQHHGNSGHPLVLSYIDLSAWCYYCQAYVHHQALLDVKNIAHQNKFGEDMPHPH
The data set is described as follows: In vitro hsHDAC6 inhibition (ZMAL substrate, trypsin developer). In kind it is biochemical.

Data set [2] concerns the target T4, hsHDAC1 (Homo sapiens, UniProt Q13547). The experiment in a line: In vitro hsHDAC1 inhibition (ZMAL substrate, trypsin developer). The class given is biochemical. The note with it: read-out: hsHDAC1 (% inhibition, ZMAL).
For data set [3], the target named is T4, hsHDAC1. Details: method as in PMID 19007204. The settings on record: cited from earlier work.
In data set [4] the target is T2, hsHDAC8. Details: method as in PMID 19007204. The settings on record: cited from earlier work.
Data set [5] deals with T4, hsHDAC1. Details: method as in PMID 24086136, PMID 26013035. The settings on record: @ 10 μM; SAHA row of Table 3; cited from earlier work.

T4 sequence (Q13547 whole entry): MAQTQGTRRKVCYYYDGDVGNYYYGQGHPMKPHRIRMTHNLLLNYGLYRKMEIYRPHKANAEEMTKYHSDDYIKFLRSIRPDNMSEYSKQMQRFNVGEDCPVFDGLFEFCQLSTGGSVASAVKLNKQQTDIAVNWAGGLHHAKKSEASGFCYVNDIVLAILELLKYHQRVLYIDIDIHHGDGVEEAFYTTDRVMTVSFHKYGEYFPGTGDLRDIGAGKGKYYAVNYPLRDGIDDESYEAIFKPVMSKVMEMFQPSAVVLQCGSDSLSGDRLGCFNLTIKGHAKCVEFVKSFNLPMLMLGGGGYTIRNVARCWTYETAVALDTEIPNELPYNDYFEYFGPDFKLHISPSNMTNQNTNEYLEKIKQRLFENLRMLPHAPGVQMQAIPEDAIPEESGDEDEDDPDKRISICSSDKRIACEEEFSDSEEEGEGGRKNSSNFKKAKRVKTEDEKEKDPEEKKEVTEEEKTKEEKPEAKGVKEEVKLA

`O=C(NO)c1cn(CCc2ccccc2)nn1` [Compound 2 f] came in with a melting point of 178 °C. On smHDAC8, the IC50 turned out to be 10.7 ± 1.88 µM and the inhibition at 10 µM is 49.5%. This molecule yielded an IC50 against hsHDAC8 [1] of 5.54 ± 0.64 µM. On hsHDAC6 (@ 10 μM), the inhibition at 10 µM came to 12.6 ± 9.6%. Further, on hsHDAC1 [2] (@ 10 μM), the inhibition at 10 µM turned out to be 1.7 ± 3.4%. Also, the “inhibition of hsHDAC1 (in words)” value on hsHDAC1 [3] is on record as “weakly inhibit”. Further, the “inhibition of hsHDAC8 (in words)” value at hsHDAC8 [4] was “weakly inhibit”.
`O=C(NO)c1cn(CCCc2ccccc2)nn1` [Compound 2 g] yielded a melting point of 182 °C. Besides, at smHDAC8, it took 8.81 ± 1.89 µM to reach half-maximal inhibition (IC50) and the inhibition at 10 µM was 50.5%. The IC50 against hsHDAC8 [1] is 5.37 ± 0.68 µM. Besides, on hsHDAC6 (n=2, mean ± S.E.M.), the IC50 was 31.8 ± 6.18 µM. The inhibition at 10 µM on hsHDAC1 [2] (@ 10 μM) was found to be 5.4 ± 7%. The “inhibition of hsHDAC1 (in words)” value on hsHDAC1 [3] is recorded as “weakly inhibit”. The “inhibition of hsHDAC8 (in words)” value at hsHDAC8 [4] is “weakly inhibit”.
As for `O=C(CCCCCCC(=O)Nc1ccccc1)NO` [SAHA (1), SAHA, reference compound], the inhibition at 10 µM on smHDAC8 was 72%; at hsHDAC1 [2] it was 97.3 ± 1.3%. For the same molecule, on hsHDAC1 [5], the “hsHDAC1 % inhibition (ZMAL)” value is recorded as 0.117±0.0056 97.3±1.3 % @ 10 μM.
